From ChEMBL document CHEMBL1201862, “PubChem BioAssay data set” (2004)
Active and inactive are the calls of the source.

How the values were obtained:
[1] = target: T1, Ubiquitin-conjugating enzyme E2 N (Homo sapiens, UniProt P61088); format: functional;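 further: Dose-response confirmation in a TR-FRET assay detecting UBC13-driven polyubiquitin chain formation, inhibition measured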
T1 sequence (P61088 whole entry): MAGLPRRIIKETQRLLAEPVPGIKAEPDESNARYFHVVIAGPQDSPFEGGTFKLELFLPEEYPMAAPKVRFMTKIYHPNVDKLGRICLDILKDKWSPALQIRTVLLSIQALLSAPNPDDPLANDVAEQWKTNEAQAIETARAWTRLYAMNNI

[2] = target: Large T antigen (Simian virus 40, UniProt P03070); format: functional, Betapolyomavirus macacae;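 further: Confirmatory-stage PubChem screen for compounds that inhibit SV40 T antigen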
Sequence of Large T antigen (P03070 whole entry): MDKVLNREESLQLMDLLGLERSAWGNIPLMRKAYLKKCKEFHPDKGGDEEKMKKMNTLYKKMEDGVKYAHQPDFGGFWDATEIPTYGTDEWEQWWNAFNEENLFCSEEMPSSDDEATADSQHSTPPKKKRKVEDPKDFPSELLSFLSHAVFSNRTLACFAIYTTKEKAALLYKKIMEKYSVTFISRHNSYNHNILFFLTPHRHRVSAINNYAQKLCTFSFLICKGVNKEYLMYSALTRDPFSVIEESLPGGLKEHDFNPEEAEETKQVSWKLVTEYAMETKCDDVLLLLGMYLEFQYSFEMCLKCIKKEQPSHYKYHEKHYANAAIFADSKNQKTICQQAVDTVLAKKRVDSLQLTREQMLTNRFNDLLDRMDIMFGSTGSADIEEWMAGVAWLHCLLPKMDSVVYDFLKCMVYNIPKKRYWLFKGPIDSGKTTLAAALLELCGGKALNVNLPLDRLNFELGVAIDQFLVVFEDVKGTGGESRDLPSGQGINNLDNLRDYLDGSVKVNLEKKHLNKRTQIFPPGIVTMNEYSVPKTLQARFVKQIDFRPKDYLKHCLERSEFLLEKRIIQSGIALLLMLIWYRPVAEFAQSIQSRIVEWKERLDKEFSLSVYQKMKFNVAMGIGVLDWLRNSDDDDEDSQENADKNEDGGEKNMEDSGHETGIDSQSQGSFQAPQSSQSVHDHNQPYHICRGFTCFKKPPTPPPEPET

[3] = target: Genome polyprotein (dengue virus type 2, UniProt P29990); assay: flavivirus cap methylation enzyme inhibition – biochemical, confirmation dose response, primary screen (AID 588689); format: functional
Sequence of Genome polyprotein (P29990 2492-3391 limits assumed): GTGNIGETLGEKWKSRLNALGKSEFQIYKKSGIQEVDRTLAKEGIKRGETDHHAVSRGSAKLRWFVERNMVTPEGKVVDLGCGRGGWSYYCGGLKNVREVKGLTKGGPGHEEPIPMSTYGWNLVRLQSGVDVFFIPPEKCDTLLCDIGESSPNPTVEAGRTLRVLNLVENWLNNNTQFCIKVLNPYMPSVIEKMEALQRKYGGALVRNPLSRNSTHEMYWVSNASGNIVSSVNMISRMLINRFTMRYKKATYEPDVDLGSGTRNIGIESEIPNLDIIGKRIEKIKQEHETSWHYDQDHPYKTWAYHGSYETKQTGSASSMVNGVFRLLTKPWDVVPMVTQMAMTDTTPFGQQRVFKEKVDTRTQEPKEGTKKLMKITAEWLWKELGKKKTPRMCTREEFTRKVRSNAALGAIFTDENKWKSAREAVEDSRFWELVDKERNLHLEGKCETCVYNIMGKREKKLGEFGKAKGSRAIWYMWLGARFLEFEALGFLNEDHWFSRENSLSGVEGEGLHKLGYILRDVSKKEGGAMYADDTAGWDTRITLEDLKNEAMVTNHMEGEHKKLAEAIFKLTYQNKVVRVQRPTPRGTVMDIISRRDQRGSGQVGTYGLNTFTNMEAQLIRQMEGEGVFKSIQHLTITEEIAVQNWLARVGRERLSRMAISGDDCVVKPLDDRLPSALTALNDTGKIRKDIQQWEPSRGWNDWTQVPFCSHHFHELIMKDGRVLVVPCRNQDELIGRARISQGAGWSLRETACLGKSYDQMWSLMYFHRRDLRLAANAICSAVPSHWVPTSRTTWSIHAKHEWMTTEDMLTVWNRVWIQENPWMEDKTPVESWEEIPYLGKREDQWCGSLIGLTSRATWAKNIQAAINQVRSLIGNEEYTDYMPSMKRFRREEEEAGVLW

[4] = viability of PTEN-deleted HCT116 cells – cell-based, HCT116 PTEN knockout, dose response (AID 1047); format: functional;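 further: HCT116 colon tumor cells with PTEN knocked out; cells exposed to compound for 60 hours before readout; potency for loss of cell viability measured by luminescence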
[5] = viability of HCT116 lacking mutant beta-catenin – cell-based, human colon tumor, dose response (AID 1045); format: functional;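 further: HCT116 colon tumor cells with beta catenin knocked out; cells exposed to compound for 60 hours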
[6] = test system: Streptococcus; assay: GAS UMAA2166 growth inhibition – luminescence, BacTiterGlo, counter-screen for streptokinase expression inhibitor project, dose response (AID 1915); format: functional, organism-based;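 further: potency for reduction of bacterial viability or growth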
[7] = target: T2, Streptokinase A (Streptococcus pyogenes serotype M1, UniProt P10520); assay: viability-normalized secreted streptokinase activity reduction – plasminogen activation absorbance, OD405, dose response (AID 1914); format: functional, Streptococcus pyogenes M1 GAS;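 further: secreted streptokinase activity via plasminogen activation per viability signal from cell pellet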
T2 sequence (P10520 whole entry): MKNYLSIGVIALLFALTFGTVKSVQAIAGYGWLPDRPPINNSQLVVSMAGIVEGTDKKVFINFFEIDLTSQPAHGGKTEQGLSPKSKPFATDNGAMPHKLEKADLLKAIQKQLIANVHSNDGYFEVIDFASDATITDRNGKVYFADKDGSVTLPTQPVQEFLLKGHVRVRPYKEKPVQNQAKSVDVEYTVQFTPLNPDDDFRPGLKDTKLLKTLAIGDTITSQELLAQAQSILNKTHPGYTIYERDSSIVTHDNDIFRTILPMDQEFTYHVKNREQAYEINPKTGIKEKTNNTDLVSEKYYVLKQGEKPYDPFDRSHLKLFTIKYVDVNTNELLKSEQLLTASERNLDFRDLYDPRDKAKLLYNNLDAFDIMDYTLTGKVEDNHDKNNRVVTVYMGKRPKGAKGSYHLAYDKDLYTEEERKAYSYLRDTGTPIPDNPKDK

[8] = test system: Streptococcus sp. 'group A'; assay: Streptococcus pyogenes SK(-)GAS viability under kanamycin – luminescence, BacTiterGlo, confirmation, counter-screen for streptokinase expression inhibitor project, dose response (AID 1900); format: functional, organism-based
[9] = reduction of Shn3 3'UTR-driven luciferase in osteoblasts – cell-based, Clone20 osteoblasts, firefly luciferase, cherry-picked, dose response (AID 624132); format: functional;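 further: firefly luciferase luminescence from reporter carrying the Shn3 3'UTR in osteoblasts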
[10] = loss of viability in HepG2 cells – cell-based, CellTiter-Glo, cherry-picked, cytotoxicity control for Shn3 inhibitor project, dose response (AID 624134); format: functional
[11] = non-specific 3'UTR reporter inhibition in Clone20-Shn3RL – cell-based, Renilla luciferase, cherry-picked, counter-screen for Shn3 inhibitor project, dose response (AID 624133); format: functional
[12] = target: FAD-linked sulfhydryl oxidase ALR (Homo sapiens, UniProt P55789); assay: ALR-catalysed DTT oxidation blockers – biochemical, H2O2 detection, luminescence, cherry-pick, dose response (AID 493248)
Sequence of FAD-linked sulfhydryl oxidase ALR (P55789 whole entry): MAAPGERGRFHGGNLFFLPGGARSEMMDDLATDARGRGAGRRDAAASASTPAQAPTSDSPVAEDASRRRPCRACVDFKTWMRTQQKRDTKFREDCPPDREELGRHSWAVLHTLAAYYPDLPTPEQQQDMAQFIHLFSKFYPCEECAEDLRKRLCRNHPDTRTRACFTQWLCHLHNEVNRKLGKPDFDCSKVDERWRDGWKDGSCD

[13] = target: Glyceraldehyde-3-phosphate dehydrogenase (Homo sapiens, UniProt P04406)
Sequence of Glyceraldehyde-3-phosphate dehydrogenase (P04406 whole entry): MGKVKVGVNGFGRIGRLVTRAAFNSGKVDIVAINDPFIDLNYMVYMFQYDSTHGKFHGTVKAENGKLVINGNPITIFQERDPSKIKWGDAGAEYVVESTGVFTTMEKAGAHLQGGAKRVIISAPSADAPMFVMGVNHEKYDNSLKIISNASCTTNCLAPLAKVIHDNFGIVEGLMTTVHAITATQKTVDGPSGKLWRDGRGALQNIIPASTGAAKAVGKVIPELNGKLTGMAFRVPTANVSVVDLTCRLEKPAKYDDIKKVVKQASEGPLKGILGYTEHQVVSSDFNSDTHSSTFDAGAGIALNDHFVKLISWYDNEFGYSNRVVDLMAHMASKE

[14] = cells; format: functional, cell-based
[15] = cells; format: functional, cell-based; remark: listed apart in the source
[16] = cells; format: functional

For CN(C)CCCN(C(=O)c1ccc(S(=O)(=O)N2CCCC2)cc1)c1nc2ccc(Br)cc2s1, which IC50 [1] is on record?
Its IC50 is > 20 µM (inactive).

With O=C1CCCN1CCCNC(=S)Nc1ccc(Nc2ccccc2)cc1 as the compound, how does the IC50 [2] read?
Its IC50 is 18.7 µM (active).

For CCN(CC)c1ccc(NC(=O)COC(=O)c2ccc3ccccc3n2)cc1, which IC50 [2] is on record?
The IC50 was 48.2 µM (active).

For COc1cccc(/C=C2\SC(=S)N(C(Cc3ccccc3)C(=O)O)C2=O)c1 (centres undefined), which IC50 [3] is on record?
The IC50 was 44.4 µM (active).

Which results are given for O=C(NC1CCCCC1)C(c1ccccc1F)N(Cc1ccco1)C(=O)Cn1nnc2ccccc21 (centres undefined)?
EC50 [4]: 16 µM (active); EC50 [5]: 16 µM (active)

For CC(=O)Nc1nc2ccccc2n1CCOc1ccccc1, which EC50 [4] is on record?
Its EC50 is 15.4 µM (active).

What about the EC50 [6] of the same compound?
Its EC50 is > 150 µM (not active).

What about the EC50 [5] of the same compound?
Its EC50 is 12.7 µM (active).

What about the EC50 [7] of the same compound?
The EC50 was > 150 µM (not active).

And the EC50 [8]?
The EC50 was 11.3 µM (active).

For COc1ccc(C[C@H]2CN3C(=NC[C@@H]3Cc3ccccc3)N2CCNC(=O)c2ccc(C)c(Br)c2)cc1, which IC50 [1] is on record?
Its IC50 is > 20 µM (inactive).

Which results are given for c1csc(CCNc2ncnc3sc4c(c23)CCC4)c1?
AC50 [9]: 1.7 µM (active); EC50 [4]: 63.9 µM (active); EC50 [5]: 72.7 µM (active); AC50 [10]: 7.76 µM (active); AC50 [11]: 0.988 µM (active)

Which IC50 [2] does the source give for COc1cc(/C=N/NC(=O)c2cccc(S(=O)(=O)N3CCCC3)c2)ccc1O here?
The IC50 was 9.24 µM (active).

And the AC50 [12]?
The AC50 was 1.79 µM (active).

What does the source list for COc1cc(/C=N/NC(=O)c2cc(C3CC3)[nH]n2)ccc1O?
IC50 [2]: 7.28 µM (active); AC50 [12]: 1.74 µM (active)

For O=C(O)Cc1csc(COc2ccccc2)n1, which IC50 [13] is on record?
The IC50 was > 100 µM (not active).

For CCOC(=O)C1=C(C)N=C(C)/C(=C(/O)OCC)C1C(=O)OCC(=O)N(C)C1CCS(=O)(=O)C1 (centres undefined), which EC50 [14] is on record?
Its EC50 is > 350 µM (not active).

And the EC50 [15]?
The EC50 was > 350 µM (not active).

With CCOc1ccc(NCc2cccn2-c2nnc(N3CCC(C(=O)NCCCN4CCCCC4CC)CC3)s2)cc1 (centres undefined) as the compound, how does the IC50 [2] read?
Its IC50 is 11.7 µM (active).

Which EC50 [14] does the source give for CC(C)NC(=O)NC(=O)CSc1nnc(-c2ccccc2F)n1N here?
Its EC50 is > 350 µM (not active).

What about the EC50 [15] of the same compound?
Its EC50 is > 350 µM (not active).

Which IC50 [1] does the source give for COc1ccc(/C=N/NC(=O)CSCc2ccc([N+](=O)[O-])cc2)cc1OC here?
Its IC50 is > 20 µM (inactive).

For Cc1cc(NC(=O)COC(=O)COc2ccc(C(=O)c3ccccc3)cc2)no1, which IC50 [16] is on record?
The IC50 was 21.2 µM (active).
